# In publication PMC3005896 (Autoimmune Diseases, 2010):
# Where two headings read alike, the source gives them in different places.
# How the values were obtained:
# [1] = target: T1, human mineralocorticoid receptor (MR) (Homo sapiens, UniProt P08235); assay: Gene Blazer β-lactamase transactivation assay, MR; type: cell-based; settings: data not shown
# T1 sequence (P08235 726-984 limits assumed): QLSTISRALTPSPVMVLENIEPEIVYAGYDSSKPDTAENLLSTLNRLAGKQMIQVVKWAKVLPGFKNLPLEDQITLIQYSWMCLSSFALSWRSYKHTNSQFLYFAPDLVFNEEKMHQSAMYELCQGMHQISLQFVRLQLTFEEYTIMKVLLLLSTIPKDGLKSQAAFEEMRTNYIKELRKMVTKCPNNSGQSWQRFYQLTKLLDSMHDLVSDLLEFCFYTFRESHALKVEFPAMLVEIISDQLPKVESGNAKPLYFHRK
# Procedure: (§1) Cells were incubated overnight with the various compounds and luciferase activity was then determined in cell lysates. Transactivation activity of the human mineralocorticoid receptor (MR) and peroxisome proliferator-activated receptors (PPAR-γ and PPAR-δ) used the fluorimetric Gene Blazer β-lactamase assay system (InVitrogen) following the manufacturer's instructions. Assays were conducted on 384-well plates using a fluorogenic substrate (CCF4-AM, InVitrogen).
# [2] = test system: PLP(139–151)-induced EAE in female SJL/J mice; settings: 40 mg/kg soluble formulation (cyclodextran) s.c. daily from onset
# Procedure: Mice Pathogen free female SJL/J mice (6–8 weeks old) were used for these studies.
# The mice were assessed daily for clinical signs of EAE according to the following scale: 0: no signs; 1: limp tail or mild hind limb weakness; 2: moderate hind limb weakness or mild ataxia; 3: moderately severe hind limb weakness; 4: severe hind limb weakness or mild forearm weakness or moderate ataxia; 5: paraplegia with no more than moderate forelimb weakness; 6: paraplegia with severe forelimb weakness or severe ataxia or moribund condition.
# PPAR-δ = target: T2, PPAR-δ (Homo sapiens, UniProt Q03181); assay: Gene Blazer β-lactamase transactivation assay, PPAR-δ; type: cell-based
# T2 sequence (Q03181 211-441 limits assumed): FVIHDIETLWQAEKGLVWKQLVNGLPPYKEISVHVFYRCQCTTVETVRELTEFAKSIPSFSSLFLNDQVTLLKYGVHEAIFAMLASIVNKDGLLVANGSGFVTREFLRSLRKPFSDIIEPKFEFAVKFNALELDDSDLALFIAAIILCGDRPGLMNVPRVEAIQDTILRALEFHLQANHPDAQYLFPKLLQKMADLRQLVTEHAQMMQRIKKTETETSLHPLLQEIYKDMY
# Procedure: as §1
# in vivo = settings: mouse
# [3] = test system: PLP(139–151)-induced EAE in female SJL/J mice
# Excerpt: Mice Female SJL/J mice (6 to 8 weeks of age; Charles River Italia, Udine, Italy) were maintained in a pathogen-free vivarium at the University of Catania, School of Medicine (Catania, Italy) receiving ad libitum sterilized food and water, and were adapted to the ambient environment for at least 7 days before the start of the study. Animal care and use was in compliance with all applicable regulations for the protection of animals used for experimental and other scientific purposes.
# Disease symptoms were monitored daily and scored in a blinded manner using the following scale: 0: no illness, 1: flaccid tail, 2: moderate paraparesis, 3: severe paraparesis, 4: moribund state, 5: death. Mice were randomized to each experimental group before immunization to induce EAE. […] Statistical analysis of cumulative clinical scores was performed by ANOVA analysis for unpaired data. A P-value <.05 was considered to be statistically significant. For statistical analysis, the mice that succumbed to EAE were assigned 5 only for the day of death and then were deleted from the experimental group.
# [4] = test system: glucocorticoid receptor (GR); settings: data not shown
# Procedure: as §1
# PPAR-γ = PPAR-γ (Homo sapiens, UniProt P37231); settings: data not shown
# Procedure: as §1
# [5] = test system: LPS-induced shock in CD1 mice; settings: for Serum levels of TNFα: male CD-1 mice, LPS 0.5 mg
# Procedure: Six-week-old CD1 mice (Charles River, Calco, Italy) were kept under standard laboratory (nonspecific pathogen free) conditions at the University of Catania, School of Medicine, and were housed in a controlled environment and provided with standard rodent chow and water. Animal care and use was in compliance with all applicable regulations on protection of animals used for experimental and other scientific purposes.
# To induce lethal endotoxemia, the mice were injected i.p. with 1 mg LPS (Sigma Chimica, Milan, Italy, code L6011, Lot K4096). […] In some studies (performed by Harbor Biosciences) male mice (n = 4 per group) were used and serum was taken 2 hours after LPS (0.5 mg) challenge, to measure levels of TNFα by ELISA.
# All P-values of less than .05 were considered significant. For statistical analysis each group is compared to that of vehicle-treated control.
# [6] = humans, injection of 100–200 mg suspension formulation, for several weeks; ref Stickney et al., in preparation; cited from earlier work
# [7] = test system: CAR-induced pleurisy in CD1 male mice; settings: 40 mg/kg suspension s.c. 24 h and 1 h before CAR, vs vehicle
# ERα/β = settings: read-out: Transactivation EC50, T47D-kBluc; ERE-luciferase; cells express ERα and ERβ; mean ± SEM (n)
# Procedure: as §1
# [8] = soluble formulation (cyclodextran), Harbor Biosciences, unpublished observations
# PPAR-γ, sequence (P37231 238-505 limits assumed): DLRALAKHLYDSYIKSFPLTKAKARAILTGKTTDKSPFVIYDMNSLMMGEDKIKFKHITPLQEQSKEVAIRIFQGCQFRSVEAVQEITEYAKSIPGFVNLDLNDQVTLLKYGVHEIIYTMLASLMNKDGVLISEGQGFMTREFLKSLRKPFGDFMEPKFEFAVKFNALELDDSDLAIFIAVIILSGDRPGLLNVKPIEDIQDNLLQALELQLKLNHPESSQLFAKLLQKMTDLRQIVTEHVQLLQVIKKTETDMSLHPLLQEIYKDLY
structure (smiles),measurement,setting,value
"C[C@]12CC[C@H]3[C@@H](CC=C4C[C@@H](O)CC[C@@]43C)[C@@H]1CC[C@@H]2O [5-AED, androst-5-ene-3β,17β-diol]",Time to Cmax,"40 mg/kg as suspension, mice",within one hour
same,Time to Cmax,[8],within minutes
same,Time to complete clearance,[8],8 to 12 h
same,Transactivation of human mineralocorticoid receptor,[1],does not transactivate
same,EAE clinical score vs vehicle,[2],no significant differences
same,Transactivation of PPAR-δ,PPAR-δ; data not shown,does not transactivate
same,Cmax,in vivo,< 5000 ng/mL
same,Cmax,in vivo; 40 mg/kg,~100 ng/mL
same,concentration at 96 h,in vivo; 40 mg/kg,~10 ng/mL
same,Mortality,"[3]; 0.4 mg/kg suspension s.c., after day 17",6/10
same,Cumulative disease score,"[3]; 0.4 mg/kg suspension s.c., surviving mice only",14.5 ± 3.7
same,Lethality,[3]; 4 mg/kg suspension s.c.,No lethality
same,Cumulative disease score,"[3]; 4 mg/kg suspension s.c. from Day 8 to Day 30, trend, vehicle 25.4 ± 9.3",18.1 ± 9.9
same,Lethality,[3]; 40 mg/kg suspension s.c.,No lethality
same,Cumulative disease score,"[3]; 40 mg/kg suspension s.c. from Day 8 to Day 30, vehicle 25.4 ± 9.3",14.4 ± 9.1
same,Incidence of EAE,"[3]; all groups (0.4, 4.0, 40 mg/kg)",100%
same,Minimally effective dose,[3]; suspension s.c.,4 to 40 mg/kg
same,Transactivation of human glucocorticoid receptor,[4],does not transactivate
same,Transactivation of PPAR-γ,PPAR-γ,does not transactivate
same,Serum levels of TNFα,[5]; 0.4 mg/kg s.c.,not effective
same,Serum levels of TNFα,[5]; 4.0 mg/kg s.c.,not effective
same,Lethality,"[5]; 40 mg/kg s.c. given 4 hours after LPS, data not shown",100%
same,Lethality,"[5]; 40 mg/kg s.c. given 8 hours after LPS, data not shown",100%
same,Lethality,"[5]; 40 mg/kg s.c. given 24 hours after LPS, data not shown",100%
same,Lethality,"[5]; 40 mg/kg s.c. given 24 hours before LPS (1 mg i.p.), 72 h, vehicle 100%",50%
same,Serum levels of TNFα,"[5]; 40 mg/kg suspension s.c., vs vehicle, P < .05",significantly (P < .05) reduced
same,Sustained serum levels of 5-AED,[6],~ 30 ng/mL
same,IL-6 level in pleural rinse,[7]; at 4 and 5 hours,significantly reduced
same,TNFα level in pleural rinse,[7]; at 4 hours,significantly reduced
"CCCc1c(OCCCOc2ccc(OCC(=O)O)cc2)ccc(C(C)=O)c1O [L165,041, reference compound]",EC50,PPAR-δ; reference compound,0.0011 µM
